Target: human BLT1 receptor (Homo sapiens (Human), UniProt Q15722)
Test: BLT-1 cAMP Assay
Type: cell-based
Conditions: antagonist mode; HEK293 cells recombinantly expressing human BLT1 receptor; forskolin 4 μM and LTB4 2 nM; cAMP detection
Protocol: The ability of compounds to antagonize the human BLT1 receptor was determined using a kit to measure changes in intracellular cyclic AMP levels (cAMP dynamic assay kit, Cisbio Cat. No. 62AM4PEC). HEK293 cells recombinantly expressing human BLT1 receptor, previously frozen in Recovery Medium (Life Technologies, Cat. No. 12648-010) were thawed and diluted into assay medium (HBSS (Hyclone SH 30268.01), 20 mM HEPES (Gibco 15630-106), 800 μM IBMX (Sigma I5879), 0.1% DTPA BSA (Perkin Elmer CR84-100)). The cell suspension was centrifuged at 200×g for 10 min and then resuspended in fresh assay medium to a density of 2.5×10^5 cells/mL. A Labcyte Echo 550 acoustic dispenser was used to transfer 25 nL of test compound dissolved in DMSO into the wells of a dry 384-well plate (Greiner 784075). All subsequent liquid additions were performed using a BIORAPTR (FRD; Beckman Coulter). Next, 5 μL of cell suspension was added and incubated for 20 min. at 37° C. and 5% CO2 in a humidified plastic tray. To test for agonist activity […] of assay buffer containing forskolin (Sigma F-6886. 4 μM for BLT1) was added and incubated for 30 minutes at 37° C. and 5% CO2 in a humidified plastic tray. To test for antagonist activity 5 μL of assay buffer containing forskolin (Sigma F-6886. 4 μM for BLT1) and either LTB4 (Sigma Aldrich L0517; 2 nM BLT1) was added and incubated for 30 minutes at 37° C. and 5% CO2 in a humidified plastic tray.
The levels of cAMP were detected using the CisBio kit following the manufacturer's instructions: cAMP-d2 vial was reconstituted with distilled water and then diluted accordingly with conjugate & lysis buffer. 5 μL of cAMP-d2 working solution was added to all of the wells of the assay plate. cAMP-Cryptate vial was reconstituted with distilled water and then diluted accordingly with conjugate & lysis buffer. 5 μL of cAMP-Cryptate working solution were added to the assay plate. The assay plate was shaken for 3 minutes and incubated at room temperature for 45 minutes, then read on Perkin Elmer Envision. cAMP standard curve and fit data were plotted using a 4 parameter dose response curve fitting algorithm to fit curve. A 4-parameter curve fit (Max, min, log EC50 and slope) was used to transform fluorescent 665 nm/615 nm ratio signal to cAMP concentration. After normalization to treated and untreated controls, the percent effect of signal at each compound concentration was calculated. The plot of percent effect versus the log of compound concentration was fit with a 4-parameter concentration response equation to calculate EC50 values. Compound concentrations tested were 10 000, 3 333, 1 111, 370.4, 123.4, 41.2, 13.7, 4.6, 1.5 and 0.5 nM with 0.25% residual DMSO.

Chain of human BLT1 receptor (Q15722 whole entry): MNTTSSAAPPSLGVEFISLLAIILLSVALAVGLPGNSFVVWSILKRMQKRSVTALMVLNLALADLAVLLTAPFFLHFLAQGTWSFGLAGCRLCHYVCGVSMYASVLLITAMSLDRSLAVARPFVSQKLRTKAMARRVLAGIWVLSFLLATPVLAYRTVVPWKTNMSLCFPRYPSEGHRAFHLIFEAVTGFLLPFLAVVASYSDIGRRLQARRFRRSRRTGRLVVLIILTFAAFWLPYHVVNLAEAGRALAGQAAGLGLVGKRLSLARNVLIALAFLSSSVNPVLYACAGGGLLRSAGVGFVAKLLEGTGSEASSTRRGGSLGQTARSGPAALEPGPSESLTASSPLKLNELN

Row | SMILES | EC50
1 | CS(=O)(=O)NC(=O)c1ccc(F)cc1-c1ccc2c(c1)OC[C@@H](Cc1ccccn1)[C@@H]2O (single isomer, unassigned) [Example 3, 4-Fluoro-2-((3R,4S or 3S,4R)-4-hydroxy-3-(pyridin-2-ylmethyl)chroman-7-yl)-N-(methylsulfonyl)benzamide] | 1720 nM
2 | CC1(S(=O)(=O)NC(=O)c2ccccc2-c2ccc3c(c2)OCC(Cc2coc(-c4ccccc4)n2)C3O)CC1 (racemic) [Example 46, 2-(Rac-trans)-4-Hydroxy-3-((2-phenyloxazol-4-yl)methyl)chroman-7-yl)-N-((1-methylcyclopropyl)sulfonyl)benzamide] | 15 nM
